Results from ChEMBL document CHEMBL4004781, “Synthesis, biological evaluation, docking study and ulcerogenicity profiling of some novel quinoline-2-carboxamides as dual COXs/LOX inhibitors endowed with anti-inflammatory activity” (Eur J Med Chem, 2017).

Columns and labels:
[1] = target: T1, Prostaglandin G/H synthase 2 (Homo sapiens, UniProt P35354); test: Inhibition of recombinant human COX2 using arachidonic acid as substrate assessed as decrease in PGF2 production preincubated for 15 mins followed by substrate addition measured after 2 mins by enzyme immunoassay
T1 sequence (P35354 whole entry): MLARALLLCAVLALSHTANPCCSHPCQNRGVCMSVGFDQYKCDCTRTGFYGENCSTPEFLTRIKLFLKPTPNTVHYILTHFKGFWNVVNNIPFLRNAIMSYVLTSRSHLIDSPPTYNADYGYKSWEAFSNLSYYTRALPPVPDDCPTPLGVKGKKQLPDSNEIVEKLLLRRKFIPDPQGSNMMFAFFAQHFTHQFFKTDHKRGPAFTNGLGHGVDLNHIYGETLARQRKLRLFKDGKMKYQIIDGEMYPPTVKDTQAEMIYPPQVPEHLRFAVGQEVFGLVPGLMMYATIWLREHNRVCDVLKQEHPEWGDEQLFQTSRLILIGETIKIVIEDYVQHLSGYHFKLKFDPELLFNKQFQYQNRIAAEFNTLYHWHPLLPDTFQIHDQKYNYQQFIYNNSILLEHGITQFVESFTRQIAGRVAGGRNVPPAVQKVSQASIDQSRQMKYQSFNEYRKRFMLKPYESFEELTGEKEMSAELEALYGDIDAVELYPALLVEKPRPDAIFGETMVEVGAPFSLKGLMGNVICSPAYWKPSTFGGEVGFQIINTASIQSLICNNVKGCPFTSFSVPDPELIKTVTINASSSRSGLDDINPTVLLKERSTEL

[2] = Selectivity ratio of IC50 for ovine COX1 to IC50 for recombinant human COX2
[3] = target: T2, Prostaglandin G/H synthase 1 (Ovis aries, UniProt P05979); test: Inhibition of ovine COX1 using arachidonic acid as substrate assessed as decrease in PGF2 production preincubated for 15 mins followed by substrate addition measured after 2 mins by enzyme immunoassay
T2 sequence (P05979 whole entry): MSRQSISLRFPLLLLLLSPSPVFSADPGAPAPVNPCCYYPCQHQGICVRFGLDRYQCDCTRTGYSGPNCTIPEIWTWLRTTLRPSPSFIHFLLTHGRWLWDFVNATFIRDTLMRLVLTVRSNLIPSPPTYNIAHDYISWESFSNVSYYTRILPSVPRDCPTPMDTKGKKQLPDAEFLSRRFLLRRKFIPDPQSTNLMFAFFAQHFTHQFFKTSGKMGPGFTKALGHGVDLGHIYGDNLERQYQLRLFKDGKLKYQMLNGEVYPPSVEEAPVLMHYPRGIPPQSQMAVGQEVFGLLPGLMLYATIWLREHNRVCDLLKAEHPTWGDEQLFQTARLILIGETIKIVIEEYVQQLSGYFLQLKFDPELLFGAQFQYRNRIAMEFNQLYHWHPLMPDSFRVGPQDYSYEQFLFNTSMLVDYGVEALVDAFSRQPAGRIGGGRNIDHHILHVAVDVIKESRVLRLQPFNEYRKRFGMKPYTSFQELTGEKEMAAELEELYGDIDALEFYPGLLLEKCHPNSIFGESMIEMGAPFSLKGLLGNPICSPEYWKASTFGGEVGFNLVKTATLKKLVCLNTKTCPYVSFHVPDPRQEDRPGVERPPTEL

Rattus norvegicus [4] = test: Antiinflammatory activity in albino rat assessed as inhibition of carrageenan-induced paw edema at 28 umol/kg, ip administered 1 hr post carrageenan challenge measured at 5 hrs post compound dosing relative to control; format: functional
Rattus norvegicus [5] = test: Antiinflammatory activity in albino rat assessed as inhibition of carrageenan-induced paw edema at 28 umol/kg, ip administered 1 hr post carrageenan challenge measured at 1 hr post compound dosing relative to control; format: functional
Rattus norvegicus [6] = test: Antiinflammatory activity in albino rat assessed as inhibition of carrageenan-induced paw edema at 28 umol/kg, ip administered 1 hr post carrageenan challenge measured at 3 hrs post compound dosing relative to control; format: functional
[7] = Inhibition of soybean 15-LOX assessed as decrease in leukotriene formation by enzyme immunoassay; design: species or system Glycine max
[8] = Inhibition of soybean 15-LOX; design: species or system Glycine max
Rattus norvegicus [9] = test: Ulcerogenic effect in albino rat assessed as congestion of blood vessels at 50 umol/kg, po qd administered for 3 days measured 1 hr post last dose by hematoxylin/eosin staining-based light microscopic method; format: toxicity, organism-based; conditions: in vivo
Rattus norvegicus [10] = test: Ulcerogenic effect in albino rat assessed as loss of demarcation between surface mucus cells at 50 umol/kg, po qd administered for 3 days measured 1 hr post last dose by scanning electron microscopic method; format: toxicity, organism-based; conditions: in vivo
Rattus norvegicus [11] = test: Ulcerogenic effect in albino rat assessed as effect on architecture of gastric mucosal surface at 50 umol/kg, po qd administered for 3 days measured 1 hr post last dose by scanning electron microscopic method; format: toxicity, organism-based; conditions: in vivo
Rattus norvegicus [12] = test: Ulcerogenic effect in albino rat assessed as ulcer index at 50 umol/kg, po qd administered for 3 days measured 1 hr post last dose; format: toxicity, organism-based; conditions: in vivo
Rattus norvegicus [13] = test: Ulcerogenic effect in albino rat assessed as effect on architecture of gastric mucosa at 50 umol/kg, po qd administered for 3 days measured 1 hr post last dose by hematoxylin/eosin staining-based light microscopic method; format: toxicity, organism-based; conditions: in vivo
Rattus norvegicus [14] = test: Ulcerogenic effect in albino rat assessed as induction of necrosis in gastric mucosal cells at 50 umol/kg, po qd administered for 3 days measured 1 hr post last dose by hematoxylin/eosin staining-based light microscopic method; format: toxicity, organism-based; conditions: in vivo
Rattus norvegicus [15] = test: Ulcerogenic effect in albino rat assessed as exfoliation of superficial epithelial cells at 50 umol/kg, po qd administered for 3 days measured 1 hr post last dose by hematoxylin/eosin staining-based light microscopic method; format: toxicity, organism-based; conditions: in vivo
Rattus norvegicus [16] = test: Ulcerogenic effect in albino rat assessed as lymphocytic infiltration at 50 umol/kg, po qd administered for 3 days measured 1 hr post last dose by hematoxylin/eosin staining-based light microscopic method; format: toxicity, organism-based; conditions: in vivo
Rattus norvegicus [17] = test: Ulcerogenic effect in albino rat assessed as submucosal edema at 50 umol/kg, po qd administered for 3 days measured 1 hr post last dose by hematoxylin/eosin staining-based light microscopic method; format: toxicity, organism-based; conditions: in vivo
Rattus norvegicus [18] = test: Ulcerogenic effect in albino rat assessed as complete shedding of surface mucous cells leaving underlying gastric pit walls and openings with honeycomb shape at 50 umol/kg, po qd administered for 3 days measured 1 hr post last dose by scanning electron microscopic method; format: toxicity, organism-based; conditions: in vivo
Rattus norvegicus [19] = test: Ulcerogenic effect in albino rat assessed as maceration of gastric mucosa at 50 umol/kg, po qd administered for 3 days measured 1 hr post last dose by hematoxylin/eosin staining-based light microscopic method; format: toxicity, organism-based; conditions: in vivo

Row | SMILES | IC50 [1] | Ratio IC50 [2] | IC50 [3] | inhibition in vivo at 28 µmol/kg (Rattus norvegicus [4]) | inhibition in vivo at 28 µmol/kg (Rattus norvegicus [5]) | inhibition in vivo at 28 µmol/kg (Rattus norvegicus [6]) | IC50 [7] | other results
1 | Cc1c(C(=O)N(C)c2ccccc2)nc2ccc(Cl)cc2c1O | 1.74 µM | 4.77 | 8.3 µM | 47% | 38.9% | 45.6% | – | –
2 | CCOC(=O)C(Cc1ccccc1)NC(=O)c1nc2ccc(Cl)cc2c(O)c1C (stereo unspecified) | 1.91 µM | 5.02 | 9.6 µM | 49% | 40.5% | 47.3% | 7.14 µM | –
3 | Cc1ccc(Cl)c(Nc2ccccc2C(=O)O)c1Cl [MECLOFENAMATE SODIUM] | – | – | – | – | – | – | 5.64 µM | –
4 | Cc1c(C(=O)NCCc2ccc(N(C)C)cc2)nc2ccc(Cl)cc2c1O | 1.67 µM | 4.97 | 8.3 µM | 48.6% | 39.1% | 46.9% | – | –
5 | Cc1c(C(=O)N2CCNCC2)nc2ccc(Cl)cc2c1O | 2.81 µM | 3.8 | 10.7 µM | 38% | 31.1% | 37.5% | 8.43 µM | –
6 | Cc1c(C(=O)NC2CCCN(Cc3ccccc3)C2)nc2ccc(Cl)cc2c1O (stereo unspecified) | 3.54 µM | 3.7 | 13.1 µM | 37.8% | 31.4% | 35.9% | – | –
7 | CC(C)(C)Nc1c(-c2cc3ccccc3nc2Cl)nc2sccn12 | – | – | – | – | – | – | – | IC50 [8]: 11.5 µM
8 | Cc1c(C(=O)NCc2nc3ccccc3[nH]2)nc2ccc(Cl)cc2c1O | 1.21 µM | 6.52 | 7.9 µM | 59.4% | 45.2% | 50.1% | 6.18 µM | Activity (Rattus norvegicus [9]): Toxic; Activity (Rattus norvegicus [10]): Toxic; Activity (Rattus norvegicus [11]): Non-Toxic; UI (Rattus norvegicus [12]): 2.66; Activity (Rattus norvegicus [13]): Non-Toxic
9 | Cc1c(C(=O)NCCc2ccccc2)nc2ccc(Cl)cc2c1O | 2.54 µM | 4.48 | 11.4 µM | 43.4% | 35.8% | 40.9% | 9.87 µM | –
10 | Cc1ccc(-c2cc(C(F)(F)F)nn2-c2ccc(S(N)(=O)=O)cc2)cc1 [CELECOXIB] | – | – | – | 71.2% | 57.1% | 68.4% | – | –
11 | Cc1c(C(=O)NCCc2ccc(N3CCCCC3)cc2)nc2ccc(Cl)cc2c1O | 2.11 µM | 4.92 | 10.4 µM | 48.2% | 39.8% | 46.9% | 7.32 µM | –
12 | Cc1c(C(=O)N2CCCCC2)nc2ccc(Cl)cc2c1O | 3.14 µM | 3.94 | 12.4 µM | 36.8% | 30.1% | 35.4% | 10.4 µM | –
13 | Cc1c(C(=O)NCCc2ccc(N3CCCC3C)cc2)nc2ccc(Cl)cc2c1O (stereo unspecified) | 1.91 µM | 5.1 | 9.8 µM | 49.7% | 41% | 48% | – | –
14 | Cc1c(C(=O)NC(CO)Cc2ccccc2)nc2ccc(Cl)cc2c1O (stereo unspecified) | 2.78 µM | 4.1 | 11.4 µM | 41.3% | 34.2% | 39.5% | – | –
15 | COc1ccc2c(c1)c(CC(=O)O)c(C)n2C(=O)c1ccc(Cl)cc1 [INDOMETHACIN] | – | – | – | – | – | – | – | Activity (Rattus norvegicus [14]): Toxic; Activity (Rattus norvegicus [9]): Toxic; Activity (Rattus norvegicus [15]): Toxic; Activity (Rattus norvegicus [16]): Toxic; Activity (Rattus norvegicus [17]): Toxic; UI (Rattus norvegicus [12]): 17.23; Activity (Rattus norvegicus [18]): Toxic; Activity (Rattus norvegicus [19]): Toxic
16 | Cc1c(C(=O)NC2CCCCC2)nc2ccc(Cl)cc2c1O | 1.41 µM | 5.53 | 7.8 µM | 52% | 43.5% | 50.1% | 6.54 µM | –
17 | Cc1c(C(=O)NCCc2ccc(N3CCCC3)cc2)nc2ccc(Cl)cc2c1O | 1.69 µM | 4.43 | 7.5 µM | 49.9% | 41% | 48% | 6.74 µM | –
18 | Cc1c(C(=O)N2CCN(c3ccccc3)CC2)nc2ccc(Cl)cc2c1O | 1.13 µM | 7.61 | 8.6 µM | 65% | 49.5% | 61% | 5.91 µM | Activity (Rattus norvegicus [16]): Toxic; Activity (Rattus norvegicus [10]): Toxic; Activity (Rattus norvegicus [11]): Non-Toxic; UI (Rattus norvegicus [12]): 2.5; Activity (Rattus norvegicus [13]): Non-Toxic
